One test relates to KMS-12-PE Bcl-2 WT. In words: In vitro cytotoxicity CellTiter-Glo 48 h, KMS-12-PE Bcl-2 WT. Type of test: cell-based. Conditions: Homo sapiens, KMS-12-PE, C50 = concentration needed to reach 50% of the cellular viability. The method in brief:
(§1)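 KMS-12-PE myeloma cells were lentivirally transduced with wild-type or G101V-mutant Bcl-2 and sorted by TagRFP. They were exposed to compounds as 11-point dose responses for 48 h at 37 °C, 5% CO2. Viability was read by CellTiter-Glo ATP luminescence, and C50 was the concentration giving 50% viability.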
A general note: Cellular ATP, detected with luciferase, serves as a proxy for viable cell number.

The target in a further test is BCL2 D103Y (Homo sapiens, UniProt P10415, D103Y). Description: TR-FRET competitive binding assay, BCL2 D103Y. Conditions: Ki determined from IC50, read-out: TR_FRET EKI_Bcl2 D103Y. In short, it runs like this:
(§2)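 Terbium-labelled N-terminal Halo-fusion BCL2 or BCLXL (E. coli), 0.5 nM, competed against fluorescein-labelled PUMA peptide (2 or 20 nM) for 2 h at 23° C in 50 mM Hepes pH 7.5, 150 mM NaCl, 5% DMSO. TR-FRET 520/495 nm ratio gave IC50 by four-parameter fit; Ki derived from IC50.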
Background: TR-FRET usually uses a lanthanide donor and a delayed reading to cut background.

Another test concerns KMS-12-PE Bcl-2 G101V. Description: In vitro cytotoxicity CellTiter-Glo 48 h, KMS-12-PE Bcl-2 G101V. Type of test: cell-based. The note with it: for Ratio (G101V/WT): C50 KMS-12-PE Bcl-2 G101V over C50 KMS-12-PE Bcl-2 WT; for IC50: Homo sapiens, KMS-12-PE, 48 h, CellTiter-Glo, C50 = concentration needed to reach 50% of the cellular viability. In short, it runs like this: as §1

The next test deals with BCL2 WT (Homo sapiens (Human), UniProt P10415). In words: TR-FRET competitive binding assay, BCL2 WT. The note with it: Ki determined from IC50, read-out: TR_FRET EKI_Bcl2 WT. In short, it runs like this: as §2
The target of a further test is BCLXL WT (Homo sapiens (Human), UniProt Q07817). In words: TR-FRET competitive binding assay, BCLXL WT. The note with it: for Ki: BCLXL WT, Ki determined from IC50, read-out: TR_FRET EKI BclxL; for TR_FRET EKI BCLxL/WT selectivty ratio: ratio Ki BCLxL / Ki BCL2 WT. In short, it runs like this: as §2
Sequence of BCLXL WT (Q07817 other isoform, or with tags, fused parts or gaps): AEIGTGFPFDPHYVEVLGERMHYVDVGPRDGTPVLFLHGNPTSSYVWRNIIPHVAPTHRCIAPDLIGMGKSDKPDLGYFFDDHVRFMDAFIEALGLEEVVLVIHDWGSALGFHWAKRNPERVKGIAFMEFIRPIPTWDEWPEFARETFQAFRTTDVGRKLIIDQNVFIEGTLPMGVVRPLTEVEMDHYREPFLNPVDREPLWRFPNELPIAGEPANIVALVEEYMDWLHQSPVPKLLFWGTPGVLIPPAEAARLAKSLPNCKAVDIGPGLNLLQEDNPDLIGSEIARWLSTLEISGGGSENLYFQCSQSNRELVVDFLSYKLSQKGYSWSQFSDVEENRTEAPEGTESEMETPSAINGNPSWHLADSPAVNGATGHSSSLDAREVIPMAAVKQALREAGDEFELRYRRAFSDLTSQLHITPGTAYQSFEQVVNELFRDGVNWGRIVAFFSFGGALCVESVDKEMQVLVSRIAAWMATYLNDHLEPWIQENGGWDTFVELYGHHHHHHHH
In test [1] the test system is BCL2 G101V. In words: TR-FRET competitive binding assay, BCL2 G101V. Also noted: species or system human. Conditions: ratio Ki BCL2 G101V / Ki BCL2 WT. In short, it runs like this: as §2
In test [2] the target is BCL2 G101V (Homo sapiens, UniProt P10415, G101V). Description: TR-FRET competitive binding assay, BCL2 G101V. The note with it: BCL2 G101V; Ki determined from IC50; read-out: TR_FRET EKI_Bcl2 G101V. The method in brief: as §2

Molecules are shown by their SMILES.

Turning to `Cc1c(N(C(=O)c2cc(-c3cc4c(cc3C(=O)N3Cc5ccccc5C[C@H]3CN3CCCC3)CN(C(=O)Cc3ccc(OCCN5CCN(CC(F)F)CC5)cc3)CC4)n(C)c2C)c2ccc(O)cc2)cc(C#N)n1C` [Example 154, N-(5-cyano-1,2-dimethylpyrrol-3-yl)-5-{2-[2-(4-{2-[4-(2,2-difluoroethyl)piperazin-1-yl]ethoxy}phenyl)acetyl]-7-{[(3S)-3-(pyrrolidin-1-ylmethyl)-3,4-dihydro-1H-isoquinolin-2-yl]carbonyl}-3,4-dihydro-1H-isoquinolin-6-yl}-N-(4-hydroxyphenyl)-1,2-dimethylpyrrole-3-carboxamide], the values for the IC50 in the test on KMS-12-PE Bcl-2 WT and in the test on KMS-12-PE Bcl-2 G101V were 0.067 µM and 0.265 µM, respectively. For the same molecule, the Ki on BCL2 D103Y was 0.14 nM; on BCL2 WT, 0.04 nM; on BCLXL WT, 4.1 nM; at BCL2 G101V [2], 0.3 nM. In addition, the “Ratio (G101V/WT)” value in the test with KMS-12-PE Bcl-2 G101V amounted to 3.9552. Moreover, on BCLXL WT, the “TR_FRET EKI BCLxL/WT selectivty ratio” value is given as 110.8. Further, the “TR_FRET EKI G101V/WT selectivty ratio” value with BCL2 G101V [1] is on record as 8.4.
Turning to `CCN(C[C@@H]1Cc2ccccc2CN1C(=O)c1cc2c(cc1-c1cc(C(=O)N(c3ccc(O)cc3)c3cc(C#N)n(C)c3C)c(C)n1C)CCN(C(=O)Cc1ccc(OCCN3CCOCC3)cc1F)C2)C(C)C` [Example 155, N-(5-cyano-1,2-dimethylpyrrol-3-yl)-5-(7-{[(3S)-3-{[ethyl(isopropyl)amino]methyl}-3,4-dihydro-1H-isoquinolin-2-yl]carbonyl}-2-(2-{2-fluoro-4-[2-(morpholin-4-yl)ethoxy]phenyl}acetyl)-3,4-dihydro-1H-isoquinolin-6-yl)-N-(4-hydroxyphenyl)-1,2-dimethylpyrrole-3-carboxamide], the IC50 – broadly, the midpoint of a concentration-inhibition curve – was 0.0105 µM in the test with KMS-12-PE Bcl-2 WT and 0.0849 µM with KMS-12-PE Bcl-2 G101V. Besides, the Ki on BCL2 D103Y was found to be 0.11 nM; at BCL2 WT, 0.04 nM; at BCLXL WT, 1.7 nM; on BCL2 G101V [2] it was 0.4 nM. For the same molecule, in the test on KMS-12-PE Bcl-2 G101V, the “Ratio (G101V/WT)” value is 8.0857. Moreover, on BCLXL WT, the “TR_FRET EKI BCLxL/WT selectivty ratio” value was determined as 39.5. Also, the “TR_FRET EKI G101V/WT selectivty ratio” value in the test with BCL2 G101V [1] is 8.8.
Consider `Cc1c(N(C(=O)c2cc(-c3cc4c(cc3C(=O)N3Cc5ccccc5C[C@H]3CN3CC[C@@H](C)C3)CN(C(=O)Cc3ccc(OCCN5CCOCC5)cc3F)CC4)n(C)c2C)c2ccc(O)cc2)cc(C#N)n1C` [Example 156, N-(5-cyano-1,2-dimethylpyrrol-3-yl)-5-[2-(2-{2-fluoro-4-[2-(morpholin-4-yl)ethoxy]phenyl}acetyl)-7-{[(3S)-3-{[(3R)-3-methylpyrrolidin-1-yl]methyl}-3,4-dihydro-1H-isoquinolin-2-yl]carbonyl}-3,4-dihydro-1H-isoquinolin-6-yl]-N-(4-hydroxyphenyl)-1,2-dimethylpyrrole-3-carboxamide], for which the concentration for half-maximal inhibition (IC50) stood at 0.0154 µM with KMS-12-PE Bcl-2 WT and 0.0811 µM in the test with KMS-12-PE Bcl-2 G101V. Also, the Ki at BCL2 D103Y turned out to be 0.1 nM; at BCL2 WT it was 0.05 nM; on BCLXL WT, 2.7 nM; on BCL2 G101V [2], 0.2 nM. In addition, the “Ratio (G101V/WT)” value in the test with KMS-12-PE Bcl-2 G101V is recorded as 5.2662. In addition, on BCLXL WT, the “TR_FRET EKI BCLxL/WT selectivty ratio” value was found to be 50.9. In addition, in the test on BCL2 G101V [1], the “TR_FRET EKI G101V/WT selectivty ratio” value is listed as 4.0.
For `Cc1c(N(C(=O)c2cc(-c3cc4c(cc3C(=O)N3Cc5ccccc5C[C@H]3CN3CC[C@H](C)C3)CN(C(=O)Cc3ccc(OCCN5CCOCC5)cc3F)CC4)n(C)c2C)c2ccc(O)cc2)cc(C#N)n1C` [Example 157, N-(5-cyano-1,2-dimethylpyrrol-3-yl)-5-[2-(2-{2-fluoro-4-[2-(morpholin-4-yl)ethoxy]phenyl}acetyl)-7-{[(3S)-3-{[(3S)-3-methylpyrrolidin-1-yl]methyl}-3,4-dihydro-1H-isoquinolin-2-yl]carbonyl}-3,4-dihydro-1H-isoquinolin-6-yl]-N-(4-hydroxyphenyl)-1,2-dimethylpyrrole-3-carboxamide], the IC50 was 0.0171 µM with KMS-12-PE Bcl-2 WT and 0.0955 µM in the test with KMS-12-PE Bcl-2 G101V. Besides, the Ki at BCL2 D103Y stood at 0.09 nM; on BCL2 WT, 0.04 nM; on BCLXL WT, 2 nM; at BCL2 G101V [2] it was 0.3 nM. Further, the “Ratio (G101V/WT)” value in the test on KMS-12-PE Bcl-2 G101V is given as 5.5848. The “TR_FRET EKI BCLxL/WT selectivty ratio” value at BCLXL WT is listed as 45.5. Besides, the “TR_FRET EKI G101V/WT selectivty ratio” value in the test on BCL2 G101V [1] is 7.7.
In the case of `Cc1c(C(=O)N(c2ccc(O)cc2)c2cc(C#N)n(C(F)F)c2C)cc(-c2cc3c(cc2C(=O)N2Cc4ccccc4C[C@H]2CN2CCCCC2)CN(C(=O)Cc2ccc(OCCN4CCC(F)CC4)cc2F)CC3)n1C` [Example 158], the IC50 was 0.0068 µM with KMS-12-PE Bcl-2 WT and 0.0546 µM in the test on KMS-12-PE Bcl-2 G101V. The Ki at BCL2 D103Y turned out to be 0.47 nM; at BCL2 WT, 0.1 nM; at BCLXL WT, 5.4 nM; on BCL2 G101V [2], 0.9 nM. Moreover, the “Ratio (G101V/WT)” value with KMS-12-PE Bcl-2 G101V worked out at 8.0412. Besides, on BCLXL WT, the “TR_FRET EKI BCLxL/WT selectivty ratio” value came out at 54.0. Further, in the test with BCL2 G101V [1], the “TR_FRET EKI G101V/WT selectivty ratio” value is recorded as 9.4.
Turning to `Cc1c(C(=O)N(c2ccc(O)cc2)c2cc(C#N)n(C(F)F)c2C)cc(-c2cc3c(cc2C(=O)N2Cc4ccccc4C[C@H]2CN2CCCCC2)CN(C(=O)Cc2ccc(OCCN4CCN(CCF)CC4)cc2F)CC3)n1C` [Example 159, N-[5-cyano-1-(difluoromethyl)-2-methylpyrrol-3-yl]-5-{2-[2-(2-fluoro-4-{2-[4-(2-fluoroethyl)piperazin-1-yl]ethoxy}phenyl)acetyl]-7-{[(3S)-3-(piperidin-1-ylmethyl)-3,4-dihydro-1H-isoquinolin-2-yl]carbonyl}-3,4-dihydro-1H-isoquinolin-6-yl}-N-(4-hydroxyphenyl)-1,2-dimethylpyrrole-3-carboxamide], the half-maximal inhibitory concentration (IC50) with KMS-12-PE Bcl-2 WT worked out at 0.0079 µM; in the test on KMS-12-PE Bcl-2 G101V it was 0.0392 µM. Moreover, the Ki on BCL2 D103Y came out at 0.13 nM; on BCL2 WT it was 0.05 nM; on BCLXL WT, 3.7 nM; on BCL2 G101V [2], 0.3 nM. Also, the “Ratio (G101V/WT)” value in the test with KMS-12-PE Bcl-2 G101V was 4.9873. In addition, on BCLXL WT, the “TR_FRET EKI BCLxL/WT selectivty ratio” value is on record as 69.8. The “TR_FRET EKI G101V/WT selectivty ratio” value in the test with BCL2 G101V [1] was determined as 5.1.
Consider `Cc1c(C(=O)N(c2ccc(O)cc2)c2cc(C#N)n(C(F)F)c2C)cc(-c2cc3c(cc2C(=O)N2Cc4ccccc4C[C@H]2CN2CCCCC2)CN(C(=O)Cc2ccc(OCCN4CCN(C)CC4)cc2F)CC3)n1C` [Example 160, N-[5-cyano-1-(difluoromethyl)-2-methylpyrrol-3-yl]-5-[2-(2-{2-fluoro-4-[2-(4-methylpiperazin-1-yl)ethoxy]phenyl}acetyl)-7-{[(3S)-3-(piperidin-1-ylmethyl)-3,4-dihydro-1H-isoquinolin-2-yl]carbonyl}-3,4-dihydro-1H-isoquinolin-6-yl]-N-(4-hydroxyphenyl)-1,2-dimethylpyrrole-3-carboxamide], for which the IC50 was found to be 0.0113 µM in the test on KMS-12-PE Bcl-2 WT and 0.043 µM in the test with KMS-12-PE Bcl-2 G101V. Also, the Ki on BCL2 D103Y stood at 0.18 nM; at BCL2 WT, 0.03 nM; at BCLXL WT, 1.5 nM; at BCL2 G101V [2], 0.2 nM. In addition, the “Ratio (G101V/WT)” value in the test with KMS-12-PE Bcl-2 G101V turned out to be 3.8053. Also, the “TR_FRET EKI BCLxL/WT selectivty ratio” value on BCLXL WT turned out to be 55.6. For the same molecule, the “TR_FRET EKI G101V/WT selectivty ratio” value in the test on BCL2 G101V [1] turned out to be 6.3.
With `Cc1c(N(C(=O)c2cc(-c3cc4c(cc3C(=O)N3Cc5ccccc5C[C@H]3CN3CCCCC3)CN(C(=O)Cc3ccc(OCCN5CCOCC5)cc3Cl)CC4)n(C)c2C)c2ccc(O)cc2)cc(C#N)n1C` [Example 161, 5-[2-[2-[2-chloro-4-(2-morpholinoethoxy)phenyl]acetyl]-7-[(3S)-3-(1-piperidylmethyl)-3,4-dihydro-1H-isoquinoline-2-carbonyl]-3,4-dihydro-1H-isoquinolin-6-yl]-N-(5-cyano-1,2-dimethyl-pyrrol-3-yl)-N-(4-hydroxyphenyl)-1,2-dimethyl-pyrrole-3-carboxamide], the IC50 in the test with KMS-12-PE Bcl-2 WT was found to be 0.0092 µM; with KMS-12-PE Bcl-2 G101V, 0.0427 µM. For the same molecule, the Ki on BCL2 D103Y was 0.14 nM; on BCL2 WT, 0.05 nM; on BCLXL WT, 2.9 nM; on BCL2 G101V [2], 0.3 nM. Further, the “Ratio (G101V/WT)” value with KMS-12-PE Bcl-2 G101V was 4.6212. Also, at BCLXL WT, the “TR_FRET EKI BCLxL/WT selectivty ratio” value worked out at 61.7. The “TR_FRET EKI G101V/WT selectivty ratio” value with BCL2 G101V [1] was determined as 7.0.
